Experimental data taken from paper PMC7617869, “Molecular glues that inhibit deubiquitylase activity and inflammatory signaling” (Nature Structural & Molecular Biology, 2025).
Where “and” joins values, the source holds several entries; their conditions need not be identical. Identical values can stand only once.

Experiments:
BRISC (FL) = molecular target: T1, BRISC (FL) (Homo sapiens, UniProt P46736+Q15018+Q9NXR7); experiment: In-gel deubiquitylation assay, TAMRA-labeled K63-tetraubiquitin, BRISC; format: biochemical; conditions: 10 μM or 100 μM inhibitor
T1 construct: full-length BRISC (FL), ARISC (FL); made in house; host or cells: Spodoptera frugiperda Sf9 insect cells (MultiBac)
Method: The inhibitor capzimin (Merck) was diluted in 1 mM DTT and incubated for 30 min at room temperature to reduce disulfide bonds required for inhibitor activity. […] DUBs were incubated with 750 nM TAMRA-labeled K63-tetraubiquitin (LifeSensors, SI6304T) for 10 min at 30 °C. Reactions were quenched by adding 2.5 μl of 4× SDS–PAGE loading dye (240 mM Tris-HCl pH 6.8, 40% v/v glycerol, 8% w/v SDS, 0.04% w/v bromophenol blue and 5% v/v β-mercaptoethanol). The samples were resolved on 4–12% NuPAGE Bis–Tris gels (Thermo Fisher Scientific). Gels were scanned using an iBright FL 1500 (Thermo Fisher Scientific) (excitation, 515–545 nm; emission, 568–617 nm; exposure, 500 ms).

BRISC = molecular target: T2, BRISC (Homo sapiens, UniProt P46736+Q15018+Q9NXR7); experiment: BRISC DUB activity assay (IQF K63-linked diubiquitin); format: biochemical; conditions: for Mean: Fig. 1d; for Normalised V0: replicate columns
T2 construct: made in house; host or cells: Spodoptera frugiperda (Sf9) insect cells, MultiBac
Method: IQF assays were performed in DUB reaction buffer containing 50 mM HEPES–NaOH pH 7.0, 100 mM NaCl, 0.1 mg ml^−1 BSA, 1 mM DTT and 0.03% v/v Brij-35. […] The final concentration of BRISC WT, all BRISC mutants, HsBRISCΔLoop, MmBRISC and DrBRISCΔNΔC was 1 nM. Other enzymes were tested at the following concentrations: 5 nM ARISC (FL), 10 nM CfBRISCΔNΔC, 250 nM AMSH* (ref. [43]), 500 nM USP2 and 1 μM trypsin (Sigma, 9002-07-7). For Michaelis–Menten experiments, 1 nM BRISC with 0–1 μM IQF K63-linked diubiquitin substrate was used. Michaelis–Menten analyses and Lineweaver–Burk plots were calculated using GraphPad Prism (version 9.0).
To assess enzymatic activity, BRISC complexes were diluted to concentrations between 1 nM and 50 nM. […] Then, 20-μl enzyme reactions were carried out in 384-well black flat-bottom low-flange plates (Corning, 35373). DUB activity was measured using IQF K63-linked diubiquitin (LifeSensors, DU6303) at 50 nM. Cleaved diubiquitin was monitored by measuring fluorescence intensity (excitation, 544 nm; emission, 575 nm; dichroic mirror, 560 nm). Fluorescence intensity was measured every minute for 30 min at 30 °C. Fluorescence intensity units were plotted against time to generate a linear reaction progress curve, where the initial velocity (V0) corresponds to the gradient of the curve (typically achieved within 15 min). IC50 values were calculated using the GraphPad Prism (version 9.0) built-in dose–response equation for inhibitor concentration versus response (variable slope).

BRISC–SHMT2 interaction = molecular target: T3, BRISC–SHMT2 interaction (Homo sapiens, UniProt P46736+Q15018+Q9NXR7); experiment: Dianthus spectral shift binding assay (BRISC–SHMT2); conditions: labelled BRISC preincubated with 100 μM compound
T3 construct: His (tag of the complex); made in house
Method: Site-specific labeling of His-tagged BRISC was performed using a RED-Tris-NTA second-generation labeling kit (NanoTemper Technologies) in buffer containing 25 mM HEPES pH 7.5, 150 mM NaCl, 1 mM DTT and 0.005% Tween-20. First, 100 nM His–BRISC was incubated with 25 nM RED-Tris-NTA dye and prepared according to the Nanotemper protocol. […] The reactions were carried out in 384-well Dianthus microplates (Nanotemper Technologies) with a 20-μl reaction volume. The measurements were performed using autoexcitation on a Dianthus NT.23 instrument at 25 °C using DI.Control software (version 2.1.1; Nanotemper Technologies). Data were analyzed using DI.Screening Analysis software (version 2.1.1; Nanotemper Technologies) and plotted in GraphPad Prism (version 10.1.0). KD values were determined using a GraphPad Prism built-in equation for total binding (one site).

## O=C(NC1CCN(C(=O)c2c(Cl)cccc2Cl)CC1)c1n[nH]cc1NC(=O)c1c(Cl)cccc1Cl [AP-5-144]
BRISC (FL)
  inhibition of BRISC cleavage of K63-linked tetraubiquitin: did not inhibit
BRISC; log[compound (μM)] 0.1931
  Mean: 1.0068
BRISC; log[compound (μM)] 0.4942
  Mean: 1.0306
BRISC; log[compound (μM)] 0.7959
  Mean: 0.9990
BRISC; log[compound (μM)] 1.0969
  Mean: 1.0116
BRISC; log[compound (μM)] 1.3979
  Mean: 0.9713
BRISC; log[compound (μM)] 1.6990
  Mean: 1.1388
BRISC; log[compound (μM)] 2.0000
  Mean: 1.0728
BRISC; log[compound (μM)] 2.3010
  Mean: 1.1033
BRISC; log[compound (μM)] -0.1079
  Mean: 1.1343
BRISC; log[compound (μM)] -0.4089
  Mean: 1.1217
BRISC; log[compound (μM)] -0.7212
  Mean: 1.1333
BRISC; log[compound (μM)] -1.7212
  Mean: 1.0000
BRISC; IQF diubiquitin assay
  inhibition of BRISC DUB activity (in words): did not inhibit
BRISC; [Inhibitor] 0.013 μM
  Normalised V0: 0.9578 and 1.102 and 0.7959 and 1.072
BRISC; [Inhibitor] 0.02 μM
  Normalised V0: 0.8824 and 1.105
BRISC; [Inhibitor] 0.0399999 μM
  Normalised V0: 1.048 and 1.358
BRISC; [Inhibitor] 0.0599997 μM
  Normalised V0: 0.9169 and 1.23
BRISC; [Inhibitor] 0.0799994 μM
  Normalised V0: 1.0394 and 1.173
BRISC; [Inhibitor] 0.119998 μM
  Normalised V0: 0.856 and 0.7489
BRISC; [Inhibitor] 0.199996 μM
  Normalised V0: 0.9661 and 1.115
BRISC; [Inhibitor] 0.499975 μM
  Normalised V0: 0.9387 and 1.144
BRISC; [Inhibitor] 0.799936 μM
  Normalised V0: 0.8532 and 1.098
BRISC; [Inhibitor] 1.25984 μM
  Normalised V0: 0.9637 and 1.032
BRISC; [Inhibitor] 1.9996 μM
  Normalised V0: 0.7701 and 1.137
BRISC; [Inhibitor] 3.159 μM
  Normalised V0: 0.887 and 1.055
BRISC; [Inhibitor] 5.19739 μM
  Normalised V0: 0.7796 and 1.219
BRISC; [Inhibitor] 7.99364 μM
  Normalised V0: 0.912 and 1.161
BRISC; [Inhibitor] 12.7839 μM
  Normalised V0: 0.972 and 1.143
BRISC; [Inhibitor] 19.96 μM
  Normalised V0: 0.9311 and 1.165
BRISC; [Inhibitor] 31.4999 μM
  Normalised V0: 0.8747 and 1.168
BRISC; [Inhibitor] 50.147 μM
  Normalised V0: 0.908 and 1.016
BRISC; [Inhibitor] 79.7601 μM
  Normalised V0: 0.7753 and 1.257
BRISC; [Inhibitor] 125.99 μM
  Normalised V0: 0.9194 and 0.97
BRISC; [Inhibitor] 199.922 μM
  Normalised V0: 0.8606 and 0.9293
BRISC–SHMT2 interaction; SHMT2 0.00140381 μM
  Ratio 670 nm/650 nm: 1.077 and 1.081 and 1.064
BRISC–SHMT2 interaction; SHMT2 0.00280762 μM
  Ratio 670 nm/650 nm: 1.075 and 1.068 and 1.082
BRISC–SHMT2 interaction; SHMT2 0.00561523 μM
  Ratio 670 nm/650 nm: 1.073 and 1.081 and 1.075
BRISC–SHMT2 interaction; SHMT2 0.0112305 μM
  Ratio 670 nm/650 nm: 1.064 and 1.071 and 1.065
BRISC–SHMT2 interaction; SHMT2 0.0224609 μM
  Ratio 670 nm/650 nm: 1.049 and 1.052
BRISC–SHMT2 interaction; SHMT2 0.0449219 μM
  Ratio 670 nm/650 nm: 1.026 and 1.035 and 1.037
BRISC–SHMT2 interaction; SHMT2 0.0898438 μM
  Ratio 670 nm/650 nm: 1.012 and 1.013 and 1.006
BRISC–SHMT2 interaction; SHMT2 0.179688 μM
  Ratio 670 nm/650 nm: 0.993 and 0.976 and 0.943
BRISC–SHMT2 interaction; SHMT2 0.359375 μM
  Ratio 670 nm/650 nm: 0.948 and 0.935 and 0.925
BRISC–SHMT2 interaction; SHMT2 0.71875 μM
  Ratio 670 nm/650 nm: 0.903 and 0.887 and 0.836
BRISC–SHMT2 interaction; SHMT2 1.4375 μM
  Ratio 670 nm/650 nm: 0.863 and 0.84 and 0.841
BRISC–SHMT2 interaction; SHMT2 2.875 μM
  Ratio 670 nm/650 nm: 0.823 and 0.805 and 0.806
BRISC–SHMT2 interaction; SHMT2 5.75 μM
  Ratio 670 nm/650 nm: 0.792 and 0.756 and 0.785
BRISC–SHMT2 interaction; SHMT2 11.5 μM
  Ratio 670 nm/650 nm: 0.776 and 0.777 and 0.775
BRISC–SHMT2 interaction; SHMT2 23 μM
  Ratio 670 nm/650 nm: 0.77 and 0.773 and 0.777
BRISC–SHMT2 interaction; SHMT2 46 μM
  Ratio 670 nm/650 nm: 0.768 and 0.78 and 0.777
